# Experimental data from article PMC7933930, “Development of a small molecule that corrects misfolding and increases secretion of Z α1‐antitrypsin” (EMBO Molecular Medicine, 2021).
# Read-outs that look alike come from different tables or passages of the source.
# Legend:
# α1‐antichymotrypsin = α1‐antichymotrypsin (Homo sapiens, UniProt P01011); assay: Inhibitory activity of α1‐antichymotrypsin against chymotrypsin; format: biochemical
# Procedure: Figure 5 The effect of GSK716 on serpin inhibitory activity • α1‐Antitrypsin was incubated at varying molar ratios with the model protease bovine α‐chymotrypsin, and the residual protease activity determined. The intercept of the regression with the abscissa reflects the number of molecules of α1‐antitrypsin required to inhibit one molecule of chymotrypsin in the presence (+c) and absence (−c) of 50µM GSK716. Error bars reflect ± SEM of three independent experiments. • M α1‐antitrypsin was incubated with different molar ratios of chymotrypsin and resolved by SDS–PAGE. The position of covalent α1‐antitrypsin‐chymotrypsin complex (cpx), native (nat) and cleaved (clv) is shown. • The inhibitory activity of α1‐antichymotrypsin against chymotrypsin (ach + chym), neuroserpin against trypsin (neus + tryp), and antithrombin against thrombin (atiii + thrombin) was determined in the presence and absence of GSK716. Error bars reflect ± SD of two independent experiments.
# GSK716 selectivity and PK properties were profiled in order to investigate the suitability of GSK716 for progression into in vivo studies and the potential for taking it forward as a clinical candidate for testing in humans. Since GSK716 results in loss of inhibitory activity of α1‐antitrypsin, the effect of the compound was assessed on other closely related serpins. […]
# [1] = Total and unbound drug concentrations in blood and liver of Z α1‐antitrypsin transgenic mice; format: in vivo; details: for concentration at 123 h / concentration at 128 h / concentration at 339 h / concentration at 483 h: female, mouse, oral
# Procedure: GSK716 was evaluated in a transgenic mouse model with an engineered random insertion of the human Z α1‐antitrypsin gene (Teckman et al, 2004). […] Further, older mice have larger α1‐antitrypsin inclusions that may be more difficult to reverse and any changes would be more difficult to detect than in younger animals. The PK‐PD relationship of GSK716 was explored by dosing Z α1‐antitrypsin transgenic animals with 10, 30 or 100 mg/kg GSK716 three times a day. […] Blood was also harvested for the measurement of monomeric Z α1‐antitrypsin in plasma. Total concentrations of GSK716 were determined by LC‐MS/MS, and the free drug in both tissues was determined using equilibrium dialysis to determine free fraction in the samples, subsequently used to derive unbound concentrations. […] Both free and total drug concentrations of GSK716 at the targeted site of action in the liver were equivalent to those in blood (Table 2).
# Male CD‐1 mice, Han Wistar rats or beagle dogs were administered GSK716 as a suspension in 1% w/v aqueous methylcellulose via oral gavage at doses of 1 mg/kg (dog) or 10, 30 and 100 mg/kg (mouse, rat). Blood samples were taken into EDTA, diluted and mixed with acetonitrile containing internal standard (alprazolam) and centrifuged to precipitate proteins. Aliquots of the resultant supernatant were analysed by LC‐MS/MS, and concentrations of GSK716 in blood were determined. Non‐compartmental pharmacokinetic analysis (NCA) was carried out using Phoenix WinNonLin 6.3 (Certara L.P.). Free drug was measured in Z α1‐antitrypsin transgenic mice by dialysing tissue samples in rapid equilibrium dialysis cassettes.
# Hemizygous female Z α1‐antitrypsin transgenic mice were 13–15 weeks of age at start of study. Drugs were administered via oral gavage three times a day at 8‐h intervals at 10 ml/Kg as a suspension in aqueous methylcellulose containing 0.5% w/v Tween 80. In life, blood sampling was performed vial tail nick. Animals were housed in licensed, approved housing in the UK with appropriate enrichment. Animals were randomly assigned to groups using manual methods. Histopathology analysis was performed blind.
# Adrenergic β2 = Adrenergic β2 (Homo sapiens, UniProt P07550); assay: Off‐target panel: Adrenergic β2 (DRX); format: cell-based; details: read-out: Mean (PXC50)
# Procedure: (§1) GSK716 selectivity and PK properties were profiled in order to investigate the suitability of GSK716 for progression into in vivo studies and the potential for taking it forward as a clinical candidate for testing in humans. Since GSK716 results in loss of inhibitory activity of α1‐antitrypsin, the effect of the compound was assessed on other closely related serpins. […] Furthermore, there were no off‐target effects in a panel of assays considered predictive of known safety liabilities that precluded further development of GSK716 (Table EV1).
# Bile Salt Export Pump = Bile Salt Export Pump (Homo sapiens, UniProt O95342); assay: Off‐target panel: Bile Salt Export Pump; format: in vitro ADME; details: Inhibition, read-out: Mean (PXC50) (converted)
# Procedure: as §1
# Glucocorticoid Receptor = Glucocorticoid Receptor (Homo sapiens, UniProt P04150); assay: Off‐target panel: Glucocorticoid Receptor; format: cell-based; details: Agonist, read-out: Mean (PXC50)
# Procedure: as §1
# Histamine H1 = Histamine H1 (Homo sapiens, UniProt P35367); assay: Off‐target panel: Histamine H1; format: cell-based; details: Antagonist, read-out: Mean (PXC50)
# Procedure: as §1
# Serotonin transporter = Serotonin transporter (Homo sapiens, UniProt P31645); assay: Off‐target panel: Serotonin transporter; format: cell-based
# Procedure: as §1
# [2] = Z α1-antitrypsin transgenic (hemizygous), whole blood, 100 mg/kg, 100 mg/kg three times a day, read-out: TOTAL mean concentration ± SD, Blood
# [3] = Z α1-antitrypsin transgenic (hemizygous), whole blood, 100 mg/kg, 100 mg/kg three times a day, read-out: UNBOUND mean concentration ± SD, Blood
# [4] = hemizygous Z α1-antitrypsin transgenic, liver, 100 mg/kg three times a day, read-out: TOTAL mean concentration ± SD, Liver
# Chain of Adrenergic β2 (P07550 whole entry): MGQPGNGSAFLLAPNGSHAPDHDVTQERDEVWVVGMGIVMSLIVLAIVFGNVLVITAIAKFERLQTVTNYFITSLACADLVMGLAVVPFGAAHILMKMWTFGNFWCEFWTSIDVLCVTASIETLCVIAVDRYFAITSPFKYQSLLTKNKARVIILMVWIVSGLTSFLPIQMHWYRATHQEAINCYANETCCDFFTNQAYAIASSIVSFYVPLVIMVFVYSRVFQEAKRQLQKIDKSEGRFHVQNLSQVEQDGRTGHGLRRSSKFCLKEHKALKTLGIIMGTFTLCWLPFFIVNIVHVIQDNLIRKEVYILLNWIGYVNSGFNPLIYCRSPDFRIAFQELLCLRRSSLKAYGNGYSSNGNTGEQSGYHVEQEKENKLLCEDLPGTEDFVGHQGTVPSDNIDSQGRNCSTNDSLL
# Chain of Histamine H1 (P35367 whole entry): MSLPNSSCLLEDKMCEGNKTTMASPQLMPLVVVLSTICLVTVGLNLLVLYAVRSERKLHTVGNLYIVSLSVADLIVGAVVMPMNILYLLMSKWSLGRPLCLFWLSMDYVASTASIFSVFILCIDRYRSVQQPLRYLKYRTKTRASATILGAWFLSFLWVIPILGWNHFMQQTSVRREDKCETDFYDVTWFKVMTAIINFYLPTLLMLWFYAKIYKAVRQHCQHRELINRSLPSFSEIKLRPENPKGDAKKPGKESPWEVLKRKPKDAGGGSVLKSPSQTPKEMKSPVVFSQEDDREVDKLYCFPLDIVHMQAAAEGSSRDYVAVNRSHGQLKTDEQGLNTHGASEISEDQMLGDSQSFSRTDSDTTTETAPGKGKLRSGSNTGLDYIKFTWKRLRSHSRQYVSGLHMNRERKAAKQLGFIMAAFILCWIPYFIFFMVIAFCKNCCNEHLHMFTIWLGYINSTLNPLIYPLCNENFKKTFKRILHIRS
# Chain of Bile Salt Export Pump (O95342 whole entry, species assumed): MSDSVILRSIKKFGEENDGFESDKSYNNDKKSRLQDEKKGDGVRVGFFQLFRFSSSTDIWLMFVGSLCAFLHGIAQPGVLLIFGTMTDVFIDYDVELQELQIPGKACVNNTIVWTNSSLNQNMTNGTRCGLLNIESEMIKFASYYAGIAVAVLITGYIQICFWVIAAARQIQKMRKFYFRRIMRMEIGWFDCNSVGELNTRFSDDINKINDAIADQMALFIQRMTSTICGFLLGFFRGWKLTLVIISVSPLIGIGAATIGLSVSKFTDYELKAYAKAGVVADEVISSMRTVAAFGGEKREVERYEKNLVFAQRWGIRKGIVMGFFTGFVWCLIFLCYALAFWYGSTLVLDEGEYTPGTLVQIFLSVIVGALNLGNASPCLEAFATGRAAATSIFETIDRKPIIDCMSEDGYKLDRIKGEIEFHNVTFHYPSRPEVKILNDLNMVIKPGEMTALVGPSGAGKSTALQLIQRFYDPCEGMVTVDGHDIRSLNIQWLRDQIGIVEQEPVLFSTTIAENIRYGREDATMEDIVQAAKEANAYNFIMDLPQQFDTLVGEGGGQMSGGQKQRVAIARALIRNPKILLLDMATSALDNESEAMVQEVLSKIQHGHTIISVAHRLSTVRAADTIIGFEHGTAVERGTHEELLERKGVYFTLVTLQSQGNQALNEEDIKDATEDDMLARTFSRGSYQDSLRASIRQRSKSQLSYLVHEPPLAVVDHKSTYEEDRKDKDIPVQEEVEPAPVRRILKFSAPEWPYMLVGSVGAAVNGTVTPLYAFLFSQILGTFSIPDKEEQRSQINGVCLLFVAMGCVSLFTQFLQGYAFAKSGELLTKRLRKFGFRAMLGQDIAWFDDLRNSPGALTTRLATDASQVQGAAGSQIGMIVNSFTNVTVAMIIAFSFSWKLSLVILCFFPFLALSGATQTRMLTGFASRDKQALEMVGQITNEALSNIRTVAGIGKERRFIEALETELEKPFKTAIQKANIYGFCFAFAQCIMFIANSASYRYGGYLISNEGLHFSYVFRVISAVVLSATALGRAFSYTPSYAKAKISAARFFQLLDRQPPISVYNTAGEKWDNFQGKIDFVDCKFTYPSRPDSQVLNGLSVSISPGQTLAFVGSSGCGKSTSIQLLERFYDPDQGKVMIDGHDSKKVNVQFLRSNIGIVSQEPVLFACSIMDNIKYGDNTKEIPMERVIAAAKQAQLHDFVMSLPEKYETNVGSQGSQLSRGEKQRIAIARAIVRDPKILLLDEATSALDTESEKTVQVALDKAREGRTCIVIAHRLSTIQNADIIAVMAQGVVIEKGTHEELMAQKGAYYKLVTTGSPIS
# Chain of Serotonin transporter (P31645 whole entry): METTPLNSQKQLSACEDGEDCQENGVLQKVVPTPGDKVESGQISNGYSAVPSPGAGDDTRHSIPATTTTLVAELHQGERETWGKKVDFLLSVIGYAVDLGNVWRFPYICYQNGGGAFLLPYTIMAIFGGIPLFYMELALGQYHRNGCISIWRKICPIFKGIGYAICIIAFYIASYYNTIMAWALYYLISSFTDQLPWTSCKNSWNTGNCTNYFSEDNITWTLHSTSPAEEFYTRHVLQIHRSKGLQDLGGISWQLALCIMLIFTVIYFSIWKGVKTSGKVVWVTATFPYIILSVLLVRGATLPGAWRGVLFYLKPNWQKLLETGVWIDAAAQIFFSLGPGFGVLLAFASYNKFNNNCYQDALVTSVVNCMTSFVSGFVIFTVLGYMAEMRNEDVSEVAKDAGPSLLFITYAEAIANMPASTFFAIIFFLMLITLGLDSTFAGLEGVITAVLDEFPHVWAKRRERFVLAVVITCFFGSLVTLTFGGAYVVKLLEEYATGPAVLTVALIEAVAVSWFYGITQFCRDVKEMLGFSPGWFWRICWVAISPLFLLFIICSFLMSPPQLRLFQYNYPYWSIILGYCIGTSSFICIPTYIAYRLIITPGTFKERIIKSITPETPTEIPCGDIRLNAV
# Chain of α1‐antichymotrypsin (P01011 24-423, species assumed): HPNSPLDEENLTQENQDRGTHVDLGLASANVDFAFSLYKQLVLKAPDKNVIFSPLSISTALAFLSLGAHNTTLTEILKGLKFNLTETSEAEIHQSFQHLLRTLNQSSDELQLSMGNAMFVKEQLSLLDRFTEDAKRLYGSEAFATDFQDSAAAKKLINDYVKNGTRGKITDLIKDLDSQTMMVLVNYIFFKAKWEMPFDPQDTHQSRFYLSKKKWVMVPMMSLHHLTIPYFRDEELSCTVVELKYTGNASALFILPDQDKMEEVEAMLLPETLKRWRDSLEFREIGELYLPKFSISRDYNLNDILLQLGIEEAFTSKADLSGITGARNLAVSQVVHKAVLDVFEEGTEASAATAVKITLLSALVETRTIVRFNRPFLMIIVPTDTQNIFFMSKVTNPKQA
# Chain of Glucocorticoid Receptor (P04150 whole entry, species assumed): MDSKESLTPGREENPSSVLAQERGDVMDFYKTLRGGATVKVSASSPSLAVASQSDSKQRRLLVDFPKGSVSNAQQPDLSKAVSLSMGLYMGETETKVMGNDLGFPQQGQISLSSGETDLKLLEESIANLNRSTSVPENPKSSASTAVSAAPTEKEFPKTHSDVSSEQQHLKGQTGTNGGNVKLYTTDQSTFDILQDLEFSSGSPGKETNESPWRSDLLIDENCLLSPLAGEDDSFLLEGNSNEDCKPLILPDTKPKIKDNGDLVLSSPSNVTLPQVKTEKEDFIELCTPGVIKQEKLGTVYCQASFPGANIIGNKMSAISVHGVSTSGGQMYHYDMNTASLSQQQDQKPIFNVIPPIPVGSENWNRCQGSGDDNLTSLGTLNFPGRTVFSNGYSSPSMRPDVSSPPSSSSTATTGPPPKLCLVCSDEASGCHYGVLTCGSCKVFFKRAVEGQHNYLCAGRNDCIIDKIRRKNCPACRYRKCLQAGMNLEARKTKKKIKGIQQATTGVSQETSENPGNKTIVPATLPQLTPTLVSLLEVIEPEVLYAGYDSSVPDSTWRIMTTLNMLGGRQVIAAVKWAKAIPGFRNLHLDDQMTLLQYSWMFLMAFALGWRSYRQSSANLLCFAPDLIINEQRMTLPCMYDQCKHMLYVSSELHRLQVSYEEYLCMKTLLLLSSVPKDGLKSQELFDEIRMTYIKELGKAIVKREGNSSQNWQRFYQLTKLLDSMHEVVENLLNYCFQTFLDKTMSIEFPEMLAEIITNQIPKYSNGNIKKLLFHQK
smiles,measurement,setting,value
CCC[C@@H](NC(=O)c1cccc2c1CC(=O)N2)[C@@H](O)c1cccc(F)c1C [GSK716],inhibitory activity of α1‐antichymotrypsin towards its cognate protease,α1‐antichymotrypsin,did not affect
same,"UNBOUND mean concentration ± SD, Liver","[1]; 30 mg/kg three times a day, time 128 h",0.075 (± 0.04 µM
same,concentration at 123 h,"[1]; Z α1-antitrypsin transgenic (hemizygous), liver, 10 mg/kg, 10 mg/kg three times a day, read-out: TOTAL mean concentration ± SD, Liver",3.5 µM
same,concentration at 123 h,"[1]; Z α1-antitrypsin transgenic (hemizygous), liver, 10 mg/kg, 10 mg/kg three times a day, read-out: UNBOUND mean concentration ± SD, Liver",0.035 µM
same,concentration at 128 h,"[1]; Z α1-antitrypsin transgenic (hemizygous), liver, 10 mg/kg, 10 mg/kg three times a day, time 128 h, read-out: TOTAL mean concentration ± SD, Liver",2.1 µM
same,concentration at 128 h,"[1]; Z α1-antitrypsin transgenic (hemizygous), liver, 10 mg/kg, 10 mg/kg three times a day, time 128 h, read-out: UNBOUND mean concentration ± SD, Liver",0.028 µM
same,concentration at 123 h,"[1]; Z α1-antitrypsin transgenic (hemizygous), liver, 30 mg/kg, 30 mg/kg three times a day, read-out: TOTAL mean concentration ± SD, Liver",6.7 µM
same,concentration at 123 h,"[1]; Z α1-antitrypsin transgenic (hemizygous), liver, 30 mg/kg, 30 mg/kg three times a day, read-out: UNBOUND mean concentration ± SD, Liver",0.091 µM
same,concentration at 128 h,"[1]; Z α1-antitrypsin transgenic (hemizygous), liver, 30 mg/kg, 30 mg/kg three times a day, time 128 h, read-out: TOTAL mean concentration ± SD, Liver",8.3 µM
same,concentration at 123 h,"[1]; Z α1-antitrypsin transgenic (hemizygous), liver, 100 mg/kg, 100 mg/kg three times a day, read-out: TOTAL mean concentration ± SD, Liver",40.9 µM
same,concentration at 123 h,"[1]; Z α1-antitrypsin transgenic (hemizygous), liver, 100 mg/kg, 100 mg/kg three times a day, read-out: UNBOUND mean concentration ± SD, Liver",1.05 µM
same,concentration at 128 h,"[1]; Z α1-antitrypsin transgenic (hemizygous), liver, 100 mg/kg, 100 mg/kg three times a day, time 128 h, read-out: TOTAL mean concentration ± SD, Liver",28.4 µM
same,concentration at 128 h,"[1]; Z α1-antitrypsin transgenic (hemizygous), liver, 100 mg/kg, 100 mg/kg three times a day, time 128 h, read-out: UNBOUND mean concentration ± SD, Liver",0.679 µM
same,concentration at 123 h,"[1]; Z α1-antitrypsin transgenic (hemizygous), whole blood, 10 mg/kg, 10 mg/kg three times a day, read-out: TOTAL mean concentration ± SD, Blood",8.7 µM
same,concentration at 123 h,"[1]; Z α1-antitrypsin transgenic (hemizygous), whole blood, 10 mg/kg, 10 mg/kg three times a day, read-out: UNBOUND mean concentration ± SD, Blood",0.018 µM
same,concentration at 128 h,"[1]; Z α1-antitrypsin transgenic (hemizygous), whole blood, 10 mg/kg, 10 mg/kg three times a day, time 128 h, read-out: TOTAL mean concentration ± SD, Blood",7.7 µM
same,concentration at 128 h,"[1]; Z α1-antitrypsin transgenic (hemizygous), whole blood, 10 mg/kg, 10 mg/kg three times a day, time 128 h, read-out: UNBOUND mean concentration ± SD, Blood",0.009 µM
same,concentration at 123 h,"[1]; Z α1-antitrypsin transgenic (hemizygous), whole blood, 30 mg/kg, 30 mg/kg three times a day, read-out: TOTAL mean concentration ± SD, Blood",14 µM
same,concentration at 123 h,"[1]; Z α1-antitrypsin transgenic (hemizygous), whole blood, 30 mg/kg, 30 mg/kg three times a day, read-out: UNBOUND mean concentration ± SD, Blood",0.061 µM
same,concentration at 128 h,"[1]; Z α1-antitrypsin transgenic (hemizygous), whole blood, 30 mg/kg, 30 mg/kg three times a day, time 128 h, read-out: TOTAL mean concentration ± SD, Blood",13 µM
same,concentration at 128 h,"[1]; Z α1-antitrypsin transgenic (hemizygous), whole blood, 30 mg/kg, 30 mg/kg three times a day, time 128 h, read-out: UNBOUND mean concentration ± SD, Blood",0.051 µM
same,concentration at 123 h,[1]; [2],33 µM
same,concentration at 123 h,[1]; [3],0.49 µM
same,concentration at 128 h,"[1]; Z α1-antitrypsin transgenic (hemizygous), whole blood, 100 mg/kg, 100 mg/kg three times a day, time 128 h, read-out: TOTAL mean concentration ± SD, Blood",20 µM
same,concentration at 128 h,"[1]; Z α1-antitrypsin transgenic (hemizygous), whole blood, 100 mg/kg, 100 mg/kg three times a day, time 128 h, read-out: UNBOUND mean concentration ± SD, Blood",0.18 µM
same,concentration at 339 h,[1]; [2],30 µM
same,concentration at 339 h,[1]; [3],0.529 µM
same,concentration at 483 h,"[1]; hemizygous Z α1-antitrypsin transgenic, blood, 100 mg/kg three times a day, read-out: TOTAL mean concentration ± SD, Blood",22 µM
same,concentration at 483 h,"[1]; hemizygous Z α1-antitrypsin transgenic, blood, 100 mg/kg three times a day, read-out: UNBOUND mean concentration ± SD, Blood",0.561 µM
same,concentration at 339 h,[1]; [4],84.6 µM
same,concentration at 483 h,[1]; [4],42.4 µM
same,EC50,Adrenergic β2; Agonist,> 100 µM
same,IC50,Adrenergic β2; Antagonist,> 100 µM
same,IC50,Bile Salt Export Pump,100 µM
same,EC50,Glucocorticoid Receptor,> 100 µM
same,IC50,Histamine H1,> 25.1 µM
same,IC50,Serotonin transporter,> 100 µM
